Laboratory results taken from patent US6262046A, “Azetidinylpropylpiperidine derivatives, intermediates and use as tachykinin antagonists” (Pfizer Inc., priority 1997, dated 2001).

Target: T1, guinea pig cortex NK3 receptor (Cavia porcellus, UniProt P30098)
T1 construct: guinea pig cortex NK3 receptor; from tissue; host or cells: guinea pig (brain) cortex, prepared by the cited method of Guard et al., Br. J. Pharmacol. (1990), 99, 767
T1 sequence (P30098 1-440): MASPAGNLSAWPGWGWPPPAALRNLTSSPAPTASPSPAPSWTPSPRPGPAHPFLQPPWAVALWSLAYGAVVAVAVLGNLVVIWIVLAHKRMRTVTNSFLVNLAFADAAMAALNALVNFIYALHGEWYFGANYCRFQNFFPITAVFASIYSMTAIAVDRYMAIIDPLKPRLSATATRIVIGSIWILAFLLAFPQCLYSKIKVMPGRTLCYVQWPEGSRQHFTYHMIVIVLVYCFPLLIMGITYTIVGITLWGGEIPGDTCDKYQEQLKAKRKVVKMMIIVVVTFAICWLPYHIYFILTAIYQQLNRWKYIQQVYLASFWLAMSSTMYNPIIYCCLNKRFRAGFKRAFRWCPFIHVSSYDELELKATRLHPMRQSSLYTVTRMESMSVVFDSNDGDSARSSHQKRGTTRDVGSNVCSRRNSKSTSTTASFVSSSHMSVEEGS
Experiment: in vitro affinity for the guinea pig cortex NK3 receptor (displacement of [^3 H] senktide)
Type: binding
Conditions: displacement of [^3 H] senktide at guinea pig cortex NK3 receptor
Method: The affinity of the compounds of formula (I) and their salts for the NK3 receptor can be tested in vitro by testing their ability to displace [^3 H] senktide at the guinea pig cortex NK3 receptor. The receptors are prepared by the method described by S. Guard, et al, in Br.J.Pharmacol. (1990), 99, 767.
The data below illustrates the in vitro affinity of substances of the invention for the guinea pig cortex NK3 receptor, which assays were carried out according to the method mentioned earlier on page 15.

Structure (SMILES)	IC50
CS(=O)(=O)N1CCN(C2CN(CCC[C@]3(c4ccc(Cl)c(Cl)c4)CCCN(C(=O)c4ccccc4)C3)C2)CC1 [Example 3, (+)-3(R)-1-Benzoyl-3-(3,4-dichlorophenyl)-3-(3-[3-(4-methanesulphonylpiperazin-1-yl)azetidin-1-yl]propyl)piperidine]	1.58 nM
CS(=O)(=O)N(c1ccccc1)C1CN(CCC[C@]2(c3ccc(Cl)c(Cl)c3)CCCN(C(=O)c3ccccc3)C2)C1 [Example 13]	11.2 nM
CS(=O)(=O)N1CCN(C2CN(CCC[C@]3(c4ccc(Cl)c(Cl)c4)CCCN(C(=O)c4ccc(F)c(F)c4)C3)C2)CC1 [Example 17, (+)-3(R)-3-(3,4-Dichlorophenyl)-1-(3,4-difluorobenzoyl)-3-(3-[3-(4-methanesulphonylpiperazin-1-yl)azetidin-1-yl]propyl)piperidine]	3.98 nM
